Experiments:
ducksalad = experiment: Test B flooded paddy test; assay type: in vivo, Heteranthera limosa; settings: 1000 g ai/ha, visual rating, scale 0 to 100 (0 no effect, 100 complete control), 13 to 15 days
Procedure, shortened: (§1)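 Postemergence plants were sprayed with formulated test chemicals at 2 to 18 cm height (1- to 4-leaf stage); paddy species were grown to the 2-leaf stage. After 13 to 15 days in a greenhouse, injury was rated visually against untreated controls on a 0–100 scale (0 = no effect, 100 = complete control).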

wheat = experiment: Test B postemergence herbicide test; assay type: in vivo, Triticum aestivum; set-up: key to Wheat plant response rating: 0 = no effect, 100 = complete control; settings: scale 0 (no effect) to 100 (complete control)
Procedure, shortened: (§2)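 Read-out: visual comparison with controls, scored 0 to 100, where 100 means complete control and 0 no effect. Formulated chemicals were applied postemergence to plants 2–18 cm tall (1- to 4-leaf), or to flooded-paddy plants at the 2-leaf stage, then held 13 to 15 days under glass.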

large crabgrass [1] = experiment: Test A pre-/postemergence herbicide test; assay type: in vivo, Digitaria sanguinalis
Procedure, shortened: (§3)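 Seeds sown in sandy loam received a preemergence directed soil spray of compound in non-phytotoxic solvent with surfactant; postemergence plants (2–10 cm, one- to two-leaf stage) were sprayed to runoff at the same time. After ~10 days in greenhouse, injury was rated visually versus untreated controls (0 = no effect, 100 = complete control).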

giant foxtail [2] = experiment: Test B pre-/postemergence herbicide test; assay type: in vivo, Setaria faberi
Procedure, shortened: (§4)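 Herbicidal effect was judged by eye on a 0–100 scale after plants stood 13 to 15 days in the greenhouse following pre- or postemergence treatment with surfactant-containing formulations.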

redroot pigweed = experiment: Test A pre-/postemergence herbicide test; assay type: in vivo, Amaranthus retroflexus
Procedure, shortened: as §3

cocklebur = experiment: Test B pre-/postemergence herbicide test; assay type: in vivo, Xanthium strumarium
Procedure, shortened: (§5)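 Seeds were planted and treated preemergence with compounds formulated in a non-phytotoxic solvent mixture containing surfactant, while plants at the 1- to 4-leaf stage (2 to 18 cm) received postemergence sprays. Flooded paddy plants were grown to the 2-leaf stage. After 13 to 15 days in a greenhouse, injury was visually rated 0–100 against untreated controls.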

rice [3] = experiment: Test B pre-/postemergence herbicide test; assay type: in vivo, Oryza sativa; settings: preemergence
Procedure, shortened: as §4

lambsquarters = experiment: Test B pre-/postemergence herbicide test; assay type: in vivo, Chenopodium album
Procedure, shortened: as §4

[4] = test system: small flower umbrella sedge; experiment: Test B flooded paddy test; assay type: in vivo, Cyperus difformis; settings: 1000 g ai/ha, visual rating, scale 0 to 100 (0 no effect, 100 complete control), 13 to 15 days
Procedure, shortened: as §1

Surinam grass = experiment: Test B pre-/postemergence herbicide test; assay type: in vivo, Urochloa decumbens
Procedure, shortened: as §4

wild oat = experiment: Test B postemergence herbicide test; assay type: in vivo, Avena fatua; settings: scale 0 (no effect) to 100 (complete control)
Procedure, shortened: as §2

large crabgrass [5] = experiment: Test B pre-/postemergence herbicide test; assay type: in vivo, Digitaria sanguinalis
Procedure, shortened: as §4

velvetleaf [6] = experiment: Test A pre-/postemergence herbicide test; assay type: in vivo, Abutilon theophrasti
Procedure, shortened: as §3

morningglory [7] = experiment: Test B pre-/postemergence herbicide test; assay type: in vivo, Ipomoea coccinea
Procedure, shortened: as §5

barnyardgrass [8] = experiment: Test B flooded paddy test; assay type: in vivo, Echinochloa crus-galli; settings: 1000 g ai/ha, visual rating, scale 0 to 100 (0 no effect, 100 complete control), 13 to 15 days
Procedure, shortened: as §1

rice [9] = experiment: Test B flooded paddy test; assay type: in vivo, Oryza sativa; settings: 1000 g ai/ha, visual rating, scale 0 to 100 (0 no effect, 100 complete control), 13 to 15 days
Procedure, shortened: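 Treated at 2-leaf (paddy) or 1–4-leaf, 2–18 cm (postemergence); greenhouse 13–15 d; visual score vs control, 0 none to 100 complete control; dash = not tested.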

barnyardgrass [10] = experiment: Test A pre-/postemergence herbicide test; assay type: in vivo, Echinochloa crus-galli
Procedure, shortened: as §3

barnyardgrass [11] = experiment: Test B pre-/postemergence herbicide test; assay type: in vivo, Echinochloa crus-galli
Procedure, shortened: as §5

pigweed = experiment: Test B pre-/postemergence herbicide test; assay type: in vivo, Amaranthus retroflexus
Procedure, shortened: as §4

morningglory [12] = experiment: Test A pre-/postemergence herbicide test; assay type: in vivo, Ipomoea spp.
Procedure, shortened: as §3

blackgrass = experiment: Test B postemergence herbicide test; assay type: in vivo, Alopecurus myosuroides; settings: scale 0 (no effect) to 100 (complete control)
Procedure, shortened: as §1

giant foxtail [13] = experiment: Test A pre-/postemergence herbicide test; assay type: in vivo, Setaria faberi
Procedure, shortened: as §3

corn = experiment: Test B pre-/postemergence herbicide test; assay type: in vivo, Zea mays
Procedure, shortened: as §4

velvetleaf [14] = experiment: Test B pre-/postemergence herbicide test; assay type: in vivo, Abutilon theophrasti
Procedure, shortened: as §4

[15] = Postemergence, 500 g ai/ha, visual rating after 13 to 15 days
[16] = postemergence, 125 g ai/ha, visual rating
[17] = Postemergence, 500 g ai/ha, 0 to 100 scale, 0 no effect, 100 complete control
[18] = Postemergence, 2000 g ai/ha, 0 to 100 scale, 0 no effect, 100 complete control
[19] = Preemergence, 500 g ai/ha, visual rating, 0 to 100 scale (0 no effect, 100 complete control)
[20] = Preemergence, 2000 g ai/ha, 0 to 100 scale, 0 no effect, 100 complete control
[21] = 500 g ai/ha, visual rating 0-100, 0 no effect, 100 complete control, preemergence
[22] = Postemergence, 500 g ai/ha, visual rating after 13 to 15 days, scale 0 (no effect) to 100 (complete control)
[23] = postemergence, 125 g ai/ha, visual rating, scale 0 (no effect) to 100 (complete control)
[24] = preemergence, 125 g ai/ha, 0 to 100 scale, 0 is no effect, 100 is complete control

CCCOC(=O)c1cccc(NC(=O)c2cc(C(C)(C)C)nn2CC)c1C [Compound 90]
Ducksalad plant response rating (ducksalad): 30 | Plant response rating, Wheat (wheat; [15]): 10 | Wheat plant response rating (wheat; [16]): 10 | Crabgrass, Large plant response rating (large crabgrass [1]; [17]): 15 | Plant response rating, Crabgrass, Large (large crabgrass [1]; [18]): 25 | Crabgrass, Large plant response rating (large crabgrass [1]; [19]): 35 | Crabgrass, Large plant response rating (large crabgrass [1]; [20]): 75 | Plant response rating, Foxtail, Giant (giant foxtail [2]; [21]): 60 | Plant response rating, Foxtail, Giant (giant foxtail [2]; [22]): 10 | Foxtail, Giant plant response rating (giant foxtail [2]; [23]): 10 | Plant response rating, Foxtail, Giant (giant foxtail [2]; [24]): 10 | Pigweed plant response rating (redroot pigweed; [17]): 20 | Plant response rating, Pigweed (redroot pigweed; [18]): 40 | Pigweed plant response rating (redroot pigweed; [19]): 25 | Pigweed plant response rating (redroot pigweed; [20]): 70 | Plant response rating, Cocklebur (cocklebur; [21]): 0 | Plant response rating, Cocklebur (cocklebur; [22]): 60 | Cocklebur plant response rating (cocklebur; [23]): 10 | Plant response rating, Cocklebur (cocklebur; [24]): 0 | Plant response rating, Rice (rice [3]; 500 g ai/ha, visual rating 0-100, 0 no effect, 100 complete control): 0 | Plant response rating, Rice (rice [3]; 125 g ai/ha, 0 to 100 scale, 0 is no effect, 100 is complete control): 0 | Plant response rating, Lambsquarters (lambsquarters; [21]): 90 | Plant response rating, Lambsquarters (lambsquarters; [22]): 50 | Lambsquarters plant response rating (lambsquarters; [23]): 50 | Plant response rating, Lambsquarters (lambsquarters; [24]): 0 | Sedge, Umbrella plant response rating [4]: 50 | Plant response rating, Surinam Grass (Surinam grass; [21]): 20 | Plant response rating, Surinam Grass (Surinam grass; [22]): 10 | Surinam Grass plant response rating (Surinam grass; [23]): 10 | Plant response rating, Surinam Grass (Surinam grass; [24]): 0 | Plant response rating, Oat, Wild (wild oat; [15]): 30 | Oat, Wild plant response rating (wild oat; [16]): 10 | Plant response rating, Crabgrass, Large (large crabgrass [5]; [21]): 70 | Plant response rating, Crabgrass, Large (large crabgrass [5]; [22]): 10 | Crabgrass, Large plant response rating (large crabgrass [5]; [23]): 10 | Plant response rating, Crabgrass, Large (large crabgrass [5]; [24]): 10 | Velvetleaf plant response rating (velvetleaf [6]; [17]): 10 | Plant response rating, Velvetleaf (velvetleaf [6]; [18]): 30 | Velvetleaf plant response rating (velvetleaf [6]; [19]): 20 | Velvetleaf plant response rating (velvetleaf [6]; Preemergence, 2000 g ai/ha, visual rating, 0 to 100 scale (0 no effect, 100 complete control)): 35 | Plant response rating, Morningglory (morningglory [7]; [21]): 10 | Plant response rating, Morningglory (morningglory [7]; [22]): 40 | Morningglory plant response rating (morningglory [7]; [23]): 10 | Plant response rating, Morningglory (morningglory [7]; [24]): 0 | Barnyardgrass plant response rating (barnyardgrass [8]): 10 | Rice plant response rating (rice [9]): 10 | Barnyardgrass plant response rating (barnyardgrass [10]; [17]): 20 | Plant response rating, Barnyardgrass (barnyardgrass [10]; [18]): 20 | Barnyardgrass plant response rating (barnyardgrass [10]; [19]): 20 | Barnyardgrass plant response rating (barnyardgrass [10]; [20]): 50 | Plant response rating, Barnyardgrass (barnyardgrass [11]; [21]): 20 | Plant response rating, Barnyardgrass (barnyardgrass [11]; [22]): 30 | Barnyardgrass plant response rating (barnyardgrass [11]; [23]): 0 | Plant response rating, Barnyardgrass (barnyardgrass [11]; [24]): 10 | Plant response rating, Pigweed (pigweed; [21]): 80 | Plant response rating, Pigweed (pigweed; [22]): 40 | Pigweed plant response rating (pigweed; [23]): 30 | Plant response rating, Pigweed (pigweed; [24]): 10 | Morningglory plant response rating (morningglory [12]; [17]): 10 | Plant response rating, Morningglory (morningglory [12]; [18]): 10 | Morningglory plant response rating (morningglory [12]; [19]): 0 | Morningglory plant response rating (morningglory [12]; [20]): 30 | Plant response rating, Blackgrass (blackgrass; [15]): 10 | Blackgrass plant response rating (blackgrass; [16]): 0 | Foxtail, Giant plant response rating (giant foxtail [13]; [17]): 20 | Plant response rating, Foxtail, Giant (giant foxtail [13]; [18]): 20 | Foxtail, Giant plant response rating (giant foxtail [13]; [19]): 25 | Foxtail, Giant plant response rating (giant foxtail [13]; [20]): 60 | Plant response rating, Corn (corn; [21]): 20 | Plant response rating, Corn (corn; [22]): 10 | Corn plant response rating (corn; [23]): 10 | Plant response rating, Corn (corn; [24]): 0 | Plant response rating, Velvetleaf (velvetleaf [14]; [21]): 20 | Plant response rating, Velvetleaf (velvetleaf [14]; [22]): 30 | Velvetleaf plant response rating (velvetleaf [14]; [23]): 10 | Plant response rating, Velvetleaf (velvetleaf [14]; [24]): 0

Source: patent US20060069132A1, “Azolecarboxamide herbicides” (priority 2004, published 2006)
